# Measurements: patent US9340819B2, “Method for detecting the presence of carbapenemase-producing bacteria in a sample” (priority 2011, dated 2016)
# Key:
# E. cloacae [1] = experiment: MIC of carbapenem by Etest (Example 2); assay type: cell-based, Enterobacter cloacae
# Method: (§1) All strains had previously been characterized for their β-lactamase content at the molecular level. Minimum inhibitory concentration of carbapenem were determined using the Etest® (AB bioMérieux, Solna, Sweden) and results were recorded according to US guidelines (CLSI), as updated in 2011.
# P. stuartii = experiment: MIC by Etest on Mueller-Hinton agar (Example 1); assay type: cell-based; settings: Providencia stuartii, NDM-1 + OXA-1 + CMY-6
# Method: (§2) Prior to performing the method of the invention, susceptibility testings were performed by determining Minimum Inhibitory Concentration (MIC) values by the Etest® (AB bioMérieux; Solna, Sweden) on Mueller-Hinton agar plates at 37° C. and results of susceptibility testing were recorded according to the Clinical and Laboratory Standards Institute (CLSI) guidelines as modified in June 2010 (18). The breakpoints for imipenem are S≦1 μg/ml (susceptibility) and R≧4 μg/ml (resistant). As for those for ertapenem, they are S≦0.25 μg/ml and R≧1 μg/ml (see Tables 1 and 2).
# P. mirabilis [2] = experiment: MIC by Etest on Mueller-Hinton agar (Example 1); assay type: cell-based; settings: Proteus mirabilis, plasmid mediated cephalosporinase ACC-1
# Method: as §2
# C. freundii [3] = experiment: MIC by Etest on Mueller-Hinton agar (Example 1); assay type: cell-based; settings: Citrobacter freundii; C. freundii STE (13); NDM-1 + OXA-1 + OXA-9 + OXA-10 + CTX-M-15 + TEM-1
# Method: as §2
# E. cloacae [4] = experiment: MIC by Etest on Mueller-Hinton agar (Example 1); assay type: cell-based; settings: Enterobacter cloacae
# Method: as §2
# E. coli [5] = experiment: MIC by Etest on Mueller-Hinton agar (Example 1); assay type: cell-based, Escherichia coli; settings: for MIC: Escherichia coli
# Method: as §2
# P. rettgeri [6] = experiment: MIC of carbapenem by Etest (Example 2); assay type: cell-based, Proteus rettgeri
# Method: as §1
# M. morganii = experiment: MIC of carbapenem by Etest (Example 2); assay type: cell-based, Morganella morganii; settings: Plasmid mediated AmpC or chromosomal AmpC + decreased membrane permeability; M. morganii Overexpressed cephalosporinase, n=2
# Method: as §1
# E. sakazaki = experiment: MIC of carbapenem by Etest (Example 2); assay type: cell-based; settings: ESBL + decreased membrane permeability; E. sakazaki CTX-M-15, n=1
# Method: as §1
# K. ozonae = experiment: MIC of carbapenem by Etest (Example 2); assay type: cell-based; settings: K. ozonae KPC-3, n=1
# Method: as §1
# Salmonella spp. = experiment: MIC of carbapenem by Etest (Example 2); assay type: cell-based; settings: Salmonella spp. KPC-2, n=1
# Method: as §1
# E. aerogenes = experiment: MIC of carbapenem by Etest (Example 2); assay type: cell-based, Enterobacter aerogenes
# Method: as §1
# C. freundii [7] = experiment: MIC of carbapenem by Etest (Example 2); assay type: cell-based, Citrobacter freundii
# Method: as §1
# P. rettgeri [8] = experiment: MIC by Etest on Mueller-Hinton agar (Example 1); assay type: cell-based, Proteus rettgeri; settings: Providencia rettgeri; P. rettgeri RAP (9); OXA-181 + OXA-1
# Method: as §2
# S. marcescens = experiment: MIC of carbapenem by Etest (Example 2); assay type: cell-based, Serratia marcescens
# Method: as §1
# E. asburiae = experiment: MIC of carbapenem by Etest (Example 2); assay type: cell-based, Enterobacter asburiae; settings: E. asburiae IMI-2, n=1
# Method: as §1
# K. pneumoniae = experiment: MIC of carbapenem by Etest (Example 2); assay type: cell-based, Klebsiella pneumoniae
# Method: as §1
# E. coli [9] = experiment: MIC of carbapenem by Etest (Example 2); assay type: cell-based, Escherichia coli
# Method: as §1
# P. mirabilis [10] = experiment: MIC of carbapenem by Etest (Example 2); assay type: cell-based, Proteus mirabilis; settings: Plasmid mediated AmpC or chromosomal AmpC + decreased membrane permeability; P. mirabilis ACC-1, n=1
# Method: as §1
smiles,measurement,setting,value
"C[C@@H](O)[C@H]1C(=O)N2C(C(=O)O)=C(SCCN=CN)C[C@H]12 [IMP, imipenem]",MICs range,"E. cloacae [1]; E. cloacae GES-5, n=1",>32 mg/L
same,MICs range,"E. cloacae [1]; E. cloacae IMP-8, n=2",0.75 to 1.5 mg/L
same,MICs range,"E. cloacae [1]; E. cloacae KPC-2, n=7",1 to 24 mg/L
same,MICs range,"E. cloacae [1]; E. cloacae NDM-1, n=1",2 mg/L
same,MICs range,"E. cloacae [1]; E. cloacae NMC-A, n=1",16 mg/L
same,MICs range,"E. cloacae [1]; E. cloacae OXA-48, n=3",0.5 to 1 mg/L
same,MICs range,"E. cloacae [1]; ESBLs, E. cloacae CTX-M-15, n=3",0.12 mg/L
same,MICs range,"E. cloacae [1]; ESBLs, E. cloacae VEB-1, n=1",0.12 mg/L
same,MICs range,"E. cloacae [1]; Plasmid mediated AmpC or chromosomal AmpC + decreased membrane permeability, E. cloacae Overexpressed cephalosporinase, n=7",0.12 to 16^ mg/L
same,MIC,P. stuartii,> 32 µg/mL
same,MIC,P. mirabilis [2],0.19 µg/mL
same,MIC,C. freundii [3],> 32 µg/mL
same,MIC,"E. cloacae [4]; E. cloacae 2185, ESBL OXA-163",0.19 µg/mL
same,MIC,"E. cloacae [4]; E. cloacae (1), KPC-2",4 µg/mL
same,MIC,"E. cloacae [4]; E. cloacae (17), ESBL CTX-M-15",0.19 µg/mL
same,MIC,"E. cloacae [4]; E. cloacae ARF (25), overexpression of chromosomal cephalosporinase AmpC",0.38 µg/mL
same,MIC,"E. cloacae [4]; E. cloacae BLA, overexpression of chromosomal cephalosporinase AmpC",0.38 µg/mL
same,MIC,"E. cloacae [4]; E. cloacae CON (26), overexpression of chromosomal cephalosporinase AmpC",0.5 µg/mL
same,MIC,"E. cloacae [4]; E. cloacae IR38, NDM-1 + CTX-M-15",> 32 µg/mL
same,MIC,"E. cloacae [4]; E. cloacae TUR (6), OXA-48 + SHV-5",0.5 µg/mL
same,MIC,"E. cloacae [4]; E. cloacae, ESBL VEB-1",0.19 µg/mL
same,MICs,"E. coli [5]; E. coli Ec13 SYD (23), plasmid mediated cephalosporinase CMY-2",0.06 µg/mL
same,MICs,"E. coli [5]; E. coli J53 (29), wild-type",0.06 µg/mL
same,MICs,"E. coli [5]; E. coli VMC (24), plasmid mediated cephalosporinase CMY-10",0.06 µg/mL
same,MIC,"E. coli [5]; E. coli 271 AUS (12), NDM-1 + CTX-M-15 + TEM-1",6 µg/mL
same,MIC,"E. coli [5]; E. coli 5649 GEN, NDM-1 + OXA-1 + CMY-30 + TEM-1",6 µg/mL
same,MIC,"E. coli [5]; E. coli (18), ESBL CTX-M-14",0.06 µg/mL
same,MIC,"E. coli [5]; E. coli (20), ESBL VEB-1",0.06 µg/mL
same,MIC,"E. coli [5]; E. coli ALL, NDM-1 + OXA-1 + OXA-2 + CTX-M-15 + TEM-1",4 µg/mL
same,MIC,"E. coli [5]; E. coli BOU, OXA-48 + CTX-M-15",1 µg/mL
same,MIC,"E. coli [5]; E. coli COL (2), KPC-2",4 µg/mL
same,MIC,"E. coli [5]; E. coli DIH, VIM-19",1 µg/mL
same,MIC,"E. coli [5]; E. coli DIN, KPC",16 µg/mL
same,MIC,"E. coli [5]; E. coli FOR, ESBL CTX-M-15",0.06 µg/mL
same,MIC,"E. coli [5]; E. coli HAN (7), OXA-48",0.5 µg/mL
same,MIC,"E. coli [5]; E. coli MAD (14), VIM-1 + CTX-M-3",1.5 µg/mL
same,MIC,"E. coli [5]; E. coli MAD, IMP-1",0.5 µg/mL
same,MIC,"E. coli [5]; E. coli PSP, KPC-2",1 µg/mL
same,MIC,"E. coli [5]; E. coli RIC, NDM-1 + OXA-1 + OXA-10 + CMY-16",4 µg/mL
same,MICs range,"P. rettgeri [6]; P. rettgeri NDM-1, n=1",3 mg/L
same,MICs range,"P. rettgeri [6]; P. rettgeri OXA-181, n=1",8 mg/L
same,MICs range,M. morganii,1.5 to 2^ mg/L
same,MICs range,E. sakazaki,0.25 mg/L
same,MICs range,K. ozonae,>32 mg/L
same,MICs range,Salmonella spp.,4 mg/L
same,MICs range,"E. aerogenes; E. aerogenes KPC-2, n=1",8 mg/L
same,MICs range,"E. aerogenes; Plasmid mediated AmpC or chromosomal AmpC + decreased membrane permeability, E. aerogenes Overexpressed cephalosporinase, n=1",1 mg/L
same,MICs range,"C. freundii [7]; C. freundii NDM-1, n=1",>32 mg/L
same,MICs range,"C. freundii [7]; ESBL + decreased membrane permeability, C. freundii TEM-3, n=1",1 mg/L
same,MIC,P. rettgeri [8],1 µg/mL
same,MICs range,"S. marcescens; S. marcescens IMP-11, n=1",8 mg/L
same,MICs range,"S. marcescens; S. marcescens KPC-2, n=2",>32 mg/L
same,MICs range,"S. marcescens; S. marcescens SME-1, n=1",32 mg/L
same,MICs range,"S. marcescens; S. marcescens SME-2, n=1",32 mg/L
same,MICs range,"S. marcescens; S. marcescens VIM-2, n=1",>32 mg/L
same,MICs range,E. asburiae,>32 mg/L
same,MICs range,"K. pneumoniae; ESBL + decreased membrane permeability, K. pneumoniae CTX-M-15, n=8",0.25 to 8 mg/L
same,MICs range,"K. pneumoniae; ESBL + decreased membrane permeability, K. pneumoniae SHV-2a, n=1",0.25 mg/L
same,MICs range,"K. pneumoniae; ESBL + decreased membrane permeability, K. pneumoniae SHV-28, n=1",1 mg/L
same,MICs range,"K. pneumoniae; ESBLs, K. pneumoniae CTX-M-3, n=1",0.12 mg/L
same,MICs range,"K. pneumoniae; ESBLs, K. pneumoniae CTX-M-14, n=1",0.12 mg/L
same,MICs range,"K. pneumoniae; ESBLs, K. pneumoniae CTX-M-15, n=3",0.12 mg/L
same,MICs range,"K. pneumoniae; K. pneumoniae IMP-1, n=5",0.5 to 8 mg/L
same,MICs range,"K. pneumoniae; K. pneumoniae IMP-8, n=2",0.5 to 1 mg/L
same,MICs range,"K. pneumoniae; K. pneumoniae KPC-3, n=3",0.5 to 8 mg/L
same,MICs range,"K. pneumoniae; K. pneumoniae NDM-4, n=1",>32 mg/L
same,MICs range,"K. pneumoniae; K. pneumoniae OXA-181, n=2",0.5 to 1 mg/L
same,MICs range,"K. pneumoniae; K. pneumoniae VIM-19, n=1",8 mg/L
same,MICs range,"K. pneumoniae; Plasmid mediated AmpC or chromosomal AmpC + decreased membrane permeability, K. pneumoniae DHA-1, n=1",>32 mg/L
same,MICs range,"K. pneumoniae; Plasmid mediated AmpC or chromosomal AmpC + decreased membrane permeability, K. pneumoniae DHA-2, n=1",0.12 mg/L
same,MICs range,"E. coli [9]; E. coli IMP-1, n=2",0.5 mg/L
same,MICs range,"E. coli [9]; E. coli IMP-8, n=1",6 mg/L
same,MICs range,"E. coli [9]; E. coli KPC-2, n=5",0.5 to 4 mg/L
same,MICs range,"E. coli [9]; E. coli NDM-1, n=7",1 to 16 mg/L
same,MICs range,"E. coli [9]; E. coli OXA-48, n=6",0.38 to 3 mg/L
same,MICs range,"E. coli [9]; E. coli VIM-1, n=2",1.5 to 3 mg/L
same,MICs range,"E. coli [9]; E. coli VIM-2, n=2",2 to 4 mg/L
same,MICs range,"E. coli [9]; E. coli VIM-19, n=1",8 mg/L
same,MICs range,"E. coli [9]; ESBLs, E. coli CTX-M-1, n=1",0.12 mg/L
same,MICs range,"E. coli [9]; ESBLs, E. coli CTX-M-3, n=1",0.12 mg/L
same,MICs range,"E. coli [9]; ESBLs, E. coli CTX-M-14, n=2",0.12 mg/L
same,MICs range,"E. coli [9]; ESBLs, E. coli CTX-M-15, n=2",0.12 mg/L
same,MICs range,"E. coli [9]; ESBLs, E. coli VEB-1, n=1",0.12 to 0.25 mg/L
same,MICs range,"E. coli [9]; Plasmid mediated AmpC or chromosomal AmpC + decreased membrane permeability, E. coli ACC-1, n=1",0.12 mg/L
same,MICs range,"E. coli [9]; Plasmid mediated AmpC or chromosomal AmpC + decreased membrane permeability, E. coli CMY-2, n=1",0.12 mg/L
same,MICs range,"E. coli [9]; Plasmid mediated AmpC or chromosomal AmpC + decreased membrane permeability, E. coli CMY-10, n=1",0.12 mg/L
same,MICs range,"E. coli [9]; Plasmid mediated AmpC or chromosomal AmpC + decreased membrane permeability, E. coli DHA-1, n=1",0.12 mg/L
same,MICs range,"E. coli [9]; Plasmid mediated AmpC or chromosomal AmpC + decreased membrane permeability, E. coli Extended spectrum cephalosporinase, n=1",0.12 mg/L
same,MICs range,"E. coli [9]; Plasmid mediated AmpC or chromosomal AmpC + decreased membrane permeability, E. coli Overexpressed cephalosporinase, n=1",16 mg/L
same,MICs range,P. mirabilis [10],0.25 mg/L
